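Interpolation was linear, between the two tested concentrations surrounding the appropriate level; five concentrations were tested over 48 hours in 96-well plates. At the TGI there is no net growth.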

Some test systems named below: MOLT-4 leukemia; SW-620 colon; SNB-75 CNS; A549 NSCLC; OVCAR-4 ovarian; UACC-257 melanoma; TK-10 renal; EKVX NSCLC; HCT-15 colon; COLO 205 colon; SK-MEL-2 melanoma; MDA-MB-435; MDA-MB-231 breast; HS 578T breast; DU-145 prostate; MDA-N.
What all share (assay): growth of human tumour cells (NCI), 48 h

Turning to `C=Cc1c(-c2ccccc2)cnc2[nH]c3ccccc3c12`, the TGI in the experiment with MOLT-4 leukemia is greater than 50 µM; in the experiment on SW-620 colon it was greater than 50 µM; in the experiment with SNB-75 CNS, 46 µM; in the experiment on A549 NSCLC, greater than 50 µM; in the experiment on OVCAR-4 ovarian, greater than 50 µM; in the experiment on UACC-257 melanoma, greater than 50 µM. Besides, the TGI with TK-10 renal, in the experiment with EKVX NSCLC, with HCT-15 colon, in the experiment on COLO 205 colon and with SK-MEL-2 melanoma was greater than 50 µM throughout.

`COc1ccccc1NC(=S)Nc1ccccn1`: the TGI in the experiment on MOLT-4 leukemia, in the experiment on SW-620 colon, in the experiment on SNB-75 CNS, in the experiment with A549 NSCLC, in the experiment with OVCAR-4 ovarian and in the experiment with UACC-257 melanoma was greater than 100 µM in each case. The TGI with TK-10 renal, with EKVX NSCLC, in the experiment with MDA-MB-435, in the experiment on HCT-15 colon, in the experiment on COLO 205 colon and in the experiment on MDA-MB-231 breast was greater than 100 µM each time. Further, the TGI in the experiment on SK-MEL-2 melanoma and in the experiment with HS 578T breast was greater than 100 µM each time.

As to `CC1(C)COC(c2cccc(C(=O)c3ccccc3)c2)=N1`, the TGI with MOLT-4 leukemia is 75.9 µM; in the experiment on SW-620 colon, greater than 100 µM; in the experiment on DU-145 prostate, greater than 100 µM; in the experiment on A549 NSCLC it was greater than 100 µM; in the experiment on OVCAR-4 ovarian, greater than 100 µM; with UACC-257 melanoma it was greater than 100 µM. The TGI with TK-10 renal, in the experiment on EKVX NSCLC, with HCT-15 colon, with COLO 205 colon, in the experiment on MDA-MB-231 breast and with SK-MEL-2 melanoma was greater than 100 µM in each case. Moreover, the TGI in the experiment with MDA-N is greater than 100 µM.

Consider `Nc1nc(N)c2ncn(Cc3ccccc3CO)c2n1`, for which the TGI with MOLT-4 leukemia, with SW-620 colon, with SNB-75 CNS, in the experiment on DU-145 prostate, with A549 NSCLC and with OVCAR-4 ovarian was greater than 100 µM each time. For the same molecule, the TGI in the experiment on UACC-257 melanoma, with TK-10 renal, in the experiment with EKVX NSCLC, in the experiment with MDA-MB-435, with HCT-15 colon and in the experiment on COLO 205 colon was greater than 100 µM in each case. Also, the TGI in the experiment with MDA-MB-231 breast, in the experiment with SK-MEL-2 melanoma and with HS 578T breast was greater than 100 µM each time.

In the case of `C#CCNC(CCCN=C(N)N)C(=O)O` (stereo unspecified), the TGI with MOLT-4 leukemia, in the experiment on SW-620 colon, in the experiment with SNB-75 CNS, in the experiment on DU-145 prostate, in the experiment with A549 NSCLC and with OVCAR-4 ovarian was greater than 100 µM in each case. Besides, the TGI in the experiment with UACC-257 melanoma, in the experiment on TK-10 renal, in the experiment with EKVX NSCLC, with MDA-MB-435, in the experiment with HCT-15 colon and in the experiment with COLO 205 colon was greater than 100 µM each time. Moreover, the TGI in the experiment on MDA-MB-231 breast, in the experiment with SK-MEL-2 melanoma and in the experiment on HS 578T breast was greater than 100 µM throughout.

Turning to `COc1cc2c(/C=C3/C(=O)Nc4cc(C)c(O)cc43)c(Cl)[nH]c2cc1C`, the TGI in the experiment on MOLT-4 leukemia was 0.835 µM; in the experiment with SW-620 colon, 12.4 µM; with SNB-75 CNS it was 7.6 µM; in the experiment with DU-145 prostate, 10.5 µM; in the experiment with A549 NSCLC, 20.2 µM; in the experiment with OVCAR-4 ovarian, 24.1 µM. For the same molecule, the TGI came to 19.6 µM in the experiment on UACC-257 melanoma; 7.22 µM with TK-10 renal; 1.22 µM in the experiment on MDA-MB-435; 13.5 µM in the experiment on HCT-15 colon; 4.62 µM in the experiment on COLO 205 colon; 8.99 µM with MDA-MB-231 breast. For the same molecule, the TGI turned out to be 23.9 µM in the experiment on SK-MEL-2 melanoma and 7.35 µM with HS 578T breast.

Consider `c1ccc(Nc2nnc(-c3ccccc3Nc3ccccc3-c3nnc(Nc4ccccc4)s3)s2)cc1`, for which the TGI in the experiment with MOLT-4 leukemia, with SW-620 colon, in the experiment on SNB-75 CNS, with DU-145 prostate, in the experiment on OVCAR-4 ovarian and in the experiment with UACC-257 melanoma was greater than 100 µM each time. Further, the TGI with TK-10 renal, with EKVX NSCLC, with MDA-MB-435, with HCT-15 colon, with COLO 205 colon and with SK-MEL-2 melanoma was greater than 100 µM throughout. For the same molecule, the TGI with MDA-N was greater than 100 µM.

Regarding `CN(C)/C=N/S(=O)(=O)c1nn2c(C=O)c(-c3ccc(-c4ccccc4)cc3)nc2s1`, the TGI in the experiment with SW-620 colon was greater than 26.9 µM; in the experiment on SNB-75 CNS it was 18.3 µM; in the experiment on DU-145 prostate it was 6.13 µM; in the experiment with A549 NSCLC it was greater than 44.5 µM; in the experiment with OVCAR-4 ovarian, 4.24 µM; with UACC-257 melanoma, 9.31 µM. The TGI in the experiment with TK-10 renal amounted to 3.83 µM; with EKVX NSCLC, 19.8 µM; with MDA-MB-435, 4.8 µM; in the experiment with HCT-15 colon it was 7.75 µM; in the experiment with MDA-MB-231 breast, 7.35 µM; with SK-MEL-2 melanoma, 8.24 µM.

Turning to `O=C(NC1C(=O)NC(CCc2ccccc2)NC1=O)OCc1ccccc1` (stereo unspecified), the TGI in the experiment with MOLT-4 leukemia, with SW-620 colon, in the experiment on SNB-75 CNS, with DU-145 prostate, in the experiment with A549 NSCLC and in the experiment on OVCAR-4 ovarian was greater than 100 µM throughout. The TGI with UACC-257 melanoma, with TK-10 renal, with EKVX NSCLC, in the experiment on MDA-MB-435, with HCT-15 colon and in the experiment with COLO 205 colon was greater than 100 µM each time. In the experiment with MDA-MB-231 breast, the TGI was greater than 100 µM.

Take `CC(=O)NC1=C(NCCO)C(=O)c2ccccc2C1=O`: the TGI in the experiment on MOLT-4 leukemia, in the experiment on SW-620 colon, in the experiment with SNB-75 CNS, in the experiment on A549 NSCLC, in the experiment on OVCAR-4 ovarian and with UACC-257 melanoma was greater than 50 µM each time. For the same molecule, the TGI with TK-10 renal, in the experiment on EKVX NSCLC, in the experiment with HCT-15 colon, in the experiment on COLO 205 colon and in the experiment on SK-MEL-2 melanoma was greater than 50 µM each time.

These data come from PubChem BioAssay (NCI).
